The text below walks through data of PMC3646888 (PLoS ONE, 2013).

Common to all, as to assay type: in vitro ADME
Data set [1] concerns the target T1, CYP3A4 (Homo sapiens, UniProt P08684). The data set is described as follows: Fluorescence-based CYP3A4 assay with BFC as substrate. As to the method: (§1) These assays were performed by methods similar to those described by VanAlstine and Hough, Stresser et al., Wulff et al., Henderson et al., and Crespi et al., with minor modifications. All incubations were performed in a final volume of 200 µL of 50 mM potassium phosphate buffer at pH 7.4 containing 1% acetonitrile. CYP inhibitor studies were performed according to the parameters of Table 1. Substrate concentrations were chosen to be near known Km values. As described in the references cited, two different NADPH regenerating systems were used depending on the substrates used (Table 1). […] Samples were pre-incubated at 37°C for the designated times, and the reactions were initiated with the addition of a substrate and enzyme mixtures (Table 1). […] For the assays utilizing the “high” regenerating system, enzyme reactions were terminated at the designated time by the addition of 75 µL of 2N NaOH, followed by a 2 h post-incubation at 37°C. Product formation was then measured at the designated wavelengths (Table 1). For the “low” regenerating system assays, blanks and standards were prepared in 0.1 mL buffer without the regenerating system. For the “high” regenerating system assays, blanks and standards containing 0.1 mL of buffer received 75 µL of 2N NaOH following pre-incubation.

Data set [2] deals with T1, CYP3A4. The data set is described as follows: CYP3A4 assay with LVS as substrate (LC-MS/MS). To be noted: for IC50 at 20 min: human; for IC50: substrate LVS 10 µM. As to the method: CYP3A4-containing Supersomes (2 pmol) were incubated with LVS (10 µM) in a 200 µl reaction mixture containing 0.1 M potassium phosphate buffer, pH 7.4, 1.0 mM NADPH, and 3 mM MgCl2 for 20 min at 37°C. The reaction was initiated by the addition of NADPH, and terminated by the addition of 400 µL of acetonitrile to the reaction mixture. Samples were extracted and analyzed for the two major LVS metabolites 6′β-hydroxy LVS and 6′-exomethylene LVS by LC-MS-MS exactly as described.

A further data set has as its target T2, CYP19A1h (Homo sapiens, UniProt P11511).
T2 sequence (P11511 1-503): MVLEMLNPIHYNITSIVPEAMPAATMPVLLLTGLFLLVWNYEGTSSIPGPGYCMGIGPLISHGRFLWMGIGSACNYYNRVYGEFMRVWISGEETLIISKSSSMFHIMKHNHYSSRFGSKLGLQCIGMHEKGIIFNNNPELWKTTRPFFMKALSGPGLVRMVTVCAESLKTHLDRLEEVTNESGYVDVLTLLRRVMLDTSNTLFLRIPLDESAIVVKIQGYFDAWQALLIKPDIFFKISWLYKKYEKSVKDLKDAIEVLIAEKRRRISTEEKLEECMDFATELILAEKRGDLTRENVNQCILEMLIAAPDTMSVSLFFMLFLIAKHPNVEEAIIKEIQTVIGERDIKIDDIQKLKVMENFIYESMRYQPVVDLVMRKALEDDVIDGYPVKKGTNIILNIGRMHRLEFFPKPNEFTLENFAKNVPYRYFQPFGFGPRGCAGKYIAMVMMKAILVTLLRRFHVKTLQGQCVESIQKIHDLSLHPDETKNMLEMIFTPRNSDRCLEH
The data set is described as follows: Fluorescence-based CYP assay, recombinant CYP19A1h, substrate DBF. As to the method: as §1

For data set [3], the target named is T1, CYP3A4. The data set is described as follows: Fluorescence-based CYP3A4 assay with DBF as substrate. As for the experimental part:
as §1

“Also recorded” adds a separate entry of the source.

T1 sequence (P08684 whole entry): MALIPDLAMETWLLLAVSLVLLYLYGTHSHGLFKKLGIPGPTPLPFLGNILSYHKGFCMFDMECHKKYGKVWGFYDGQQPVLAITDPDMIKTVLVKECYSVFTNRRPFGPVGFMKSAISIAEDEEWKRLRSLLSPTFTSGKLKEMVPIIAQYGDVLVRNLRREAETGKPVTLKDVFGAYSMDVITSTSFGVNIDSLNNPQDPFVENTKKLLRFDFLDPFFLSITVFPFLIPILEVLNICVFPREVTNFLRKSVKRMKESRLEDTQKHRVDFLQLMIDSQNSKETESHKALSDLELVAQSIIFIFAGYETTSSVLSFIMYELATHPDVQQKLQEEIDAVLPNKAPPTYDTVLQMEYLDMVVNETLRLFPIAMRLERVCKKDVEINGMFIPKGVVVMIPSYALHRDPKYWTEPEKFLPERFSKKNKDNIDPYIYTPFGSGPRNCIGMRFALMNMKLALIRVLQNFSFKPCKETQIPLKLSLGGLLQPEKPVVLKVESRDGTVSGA

A word on the IC50: it is the concentration needed to halve the response being measured. Take `Clc1ccccc1C(c1ccccc1)(c1ccccc1)n1cccn1` [TRAM-34, 1-[(2-chlorophenyl)diphenylmethyl]-1H-pyrazole]: the “Effect on CYP3A4 activity with BFC (in words)” value at CYP3A4 [1] (substrate BFC) was “concentration-dependent stimulation”. The “Magnitude of stimulation of CYP3A4 with BFC” value on CYP3A4 [1] (substrate BFC 50 µM, maximum stimulation) is approximately 200%. The half-inhibitory concentration (IC50) at 20 min stood at 640 nM against CYP3A4 [2] (pH 7.4, IC50, formation of 6′-exomethylene LVS by CYP3A4, substrate LVS 10 µM) and 920 nM at CYP3A4 [2] (pH 7.4, IC50, formation of 6′β-hydroxy LVS by CYP3A4, substrate LVS 10 µM). In addition, the half-inhibitory concentration (IC50) was approximately 1000 nM at CYP3A4 [2] (read-out: IC50, formation of 6′-exomethylene LVS by CYP3A4); approximately 1000 nM on CYP3A4 [2] (read-out: IC50, formation of 6′β-hydroxy LVS by CYP3A4); more than 80000 nM at CYP19A1h; 3600 nM against CYP3A4 [3]. Further, the “Inhibition of CYP19A1h (in words)” value on CYP19A1h (up to 80 µM) is “little to no inhibition; also recorded: no inhibitory effects”.
